Source: patent US10434199B2, “Picolinate cross-bridged cyclams, chelates with metallic cations and use thereof” (UNIVERSITÉ DE BRETAGNE OCCIDENTALE, priority 2013, dated 2019)
Like-named read-outs stand apart in the source and are kept apart here.

Legend:
[1] = Potentiometric titrations: stability constants and pM of Cu^2+ complexes; assay type: physicochemical; details: for b) thermodynamic stability: pCu: overview table, calculated pM
Procedure: Equipment and work conditions. The potentiometric setup has been described in Roger, M. et al. Inorg. […] Ligand solutions were prepared at about 2.0×10^−3 M, and the Cu^2+ and Zn^2+ solutions at ca. 0.05 M from analytical grade nitrate salts and standardized by complexometric titrations with H4edta (ethylenediaminetetraacetic acid). Sample solutions for titration contained approximately 0.04 mmol of ligand in a volume of 30 mL where the ionic strength was kept at 0.10 M using KNO3 as background electrolyte. Metal cations were added at 0.9 equiv. of the ligand amount in complexation titrations. Batch titrations were prepared in a similar way but with each titration point corresponding to 1/10 of the amount of a conventional titration sample.
(§1) Measurements. All measurements were carried out at 25.0±0.1° C. under inert atmosphere. The electromotive force of the sample solutions was measured after calibration of the electrodes by titration of a standard HNO3 solution at 2.0×10^−3 M in the work conditions. The [H^+] of the solutions was determined by measurement of the electromotive force of the cell, E=E^o′+Q log [H^+]+Ej. The term pH is defined as −log [H^+]. E^o′ and Q were determined from the acid region of the calibration curves. Deviations from the Nernst law at very low pH (pH<2.5) were corrected with the VLpH software (Calibration software from the maker of Hyperquad available for free at http://www.hyperquad.co.uk/), which performs a [H^+] correction based on a very low pH calibration procedure.
(§2) Calculations. The potentiometric data were refined with the Hyperquad software, and speciation diagrams were plotted using the HySS software. The overall equilibrium constants βi^H and βMmHhL1 are defined by βMmHhL1=[MmHhLl]/[M]^m[H]^h[L]^l (βi^H=[HhLl]/[H]^h[L]^l and βML-1L=βML(OH)×Kw). Differences in log units between the values of protonated (or hydrolysed) and non-protonated constants provide the stepwise (log K) reaction constants (being KMmHhL1=[MmHhLl]/[MmHh-1Ll][H]). The errors quoted are the standard deviations calculated by the fitting program from all the experimental data for each system.
(§3) The stability constants of the complexes formed by Hcb-te1pa with Cu^2+ and Zn^2+ were determined by potentiometric titrations in aqueous solution at 25.0° C. in 0.10 M KNO3 ionic strength (Table 2).
During titrations, each experimental point included a supplementary equilibration time in order to yield fully stabilized measurements. […] For this reason, batch titrations were prepared in the range of pH=4-6 and were left to equilibrate until full stabilization, while conventional titrations were used for the remaining pH regions.
For a correct comparison of the thermodynamic stability of the complexes of Hcb-te1pa with the corresponding values of other ligands from the literature, the pM values that take into account the variable basicity properties of different ligands were also calculated (Table 3). […] The thermodynamic stability is not the only important criterion to determine the efficiency of metal complexation because, depending on the application, other factors such as kinetic inertness or in vivo stability can be more important.

[2] = Potentiometric titrations: stability constants and pM of Zn^2+ complexes; assay type: physicochemical; details: for c) inertness vs Zn: pZn: overview table, calculated pM
Procedure: Equipment and work conditions. The potentiometric setup has been described in Roger, M. et al. Inorg. Chem. 2013, 52, 5246-5259. The titrant was a KOH solution prepared at ca. 0.1 M from a commercial ampoule of analytical grade, and its accurate concentration was obtained by application of the Gran's method upon titration of a standard HNO3 solution (Rossotti, F. J. and Rossotti, H. J. J. Chem. Educ. 1965, 42, 375-378). Ligand solutions were prepared at about 2.0×10^−3 M, and the Cu^2+ and Zn^2+ solutions at ca. 0.05 M from analytical grade nitrate salts and standardized by complexometric titrations with H4edta (ethylenediaminetetraacetic acid). Sample solutions for titration contained approximately 0.04 mmol of ligand in a volume of 30 mL where the ionic strength was kept at 0.10 M using KNO3 as background electrolyte. Metal cations were added at 0.9 equiv. of the ligand amount in complexation titrations. Batch titrations were prepared in a similar way but with each titration point corresponding to 1/10 of the amount of a conventional titration sample. Batch titration points were incubated in tightly closed vials at 25° C. until potential measurements attained complete stability, which happened within a week.
as §1, with “procedure. The liquid-junction potential, Ej, was otherwise found to be negligible for pH >2.5 under the experimental conditions used. […] Each titration consisted of 80-100 equilibrium points in the range of pH 2.5-11.5 (or 1.5-11.5 for Cu^2+ complexations), and at least two replicate titrations were performed for each particular system.” for “procedure.”
as §2, §3
The equilibrium of formation of the copper(II) and especially the zinc(II) complexes is slow in the acidic pH range. In the case of Cu^2+, the complexation is almost complete from low pH but relatively slow up to pH=4. To overcome this double problem, conventional titrations were performed at pH values below 2 in order to observe a significant percentage of free metal ion (at least 18%) and thus allow for determination of the corresponding stability constant, while giving the solution enough time to reach equilibrium prior to the start of the titration. During titrations, each experimental point included a supplementary equilibration time in order to yield fully stabilized measurements. […]

[3] = cited from earlier work; for b) thermodynamic stability: log K[CuL]: overview table, ligands of the prior art (* estimation by Anderson and Ferdani 2009)
[4] = cited from earlier work; for c) inertness vs Zn: log K[ZnL]: overview table, ligands of the prior art (** Delgado 1982, *** Chaves 1992)
[5] = overview table, cited from earlier work; for a) metallation kinetics: time required for complete (>99%) Cu complexation (in words): ligands of the prior art
[6] = cited from earlier work; for d) kinetic inertness: half-life (t1/2): copper chelates of prior-art ligands; for half-life (t1/2), acid-assisted dissociation of copper(II) complex: literature value
[7] = overview table; copper chelates of prior-art ligands; cited from earlier work
[8] = 25.0° C., 0.10M KNO3; from Lima et al. 2012; cited from earlier work
[9] = pH = 7.4, 100% excess of ligand, [M^2+]tot = 1 × 10^−5 M
[10] = 25.0° C., I = 0.10M KNO3, from Lima et al. 2012

For `O=C(O)CN1CCN(CC(=O)O)CCN(CC(=O)O)CCN(CC(=O)O)CC1` [dota, 1,4,7,10-tetraazacyclododecane-1,4,7,10-tetraacetic acid], the “b) thermodynamic stability: pCu” value [1] is given as 15.19, the “c) inertness vs Zn: pZn” value [2] is given as 15.01 and the “b) thermodynamic stability: log K[CuL]” value [3] is given as 22.21. The “c) inertness vs Zn: log K[ZnL]” value [4] was 21.01***, the “a) metallation kinetics: time required for complete (>99%) Cu complexation (in words)” value [5] was “fast” and the “d) kinetic inertness: half-life (t1/2)” value ([6]; HCl, 5M, 90° C.) was less than 1 min. For the same compound, the “d) kinetic inertness: half-life (t1/2)” value ([6]; HClO4, 5M, 25° C.) was “about 5 min”, the “e) stability upon reduction, Cu(II) -> Cu (I): reduction potential” value [7] was −0.74 V and the “e) stability upon reduction, Cu(II) -> Cu (I): reversibility” value [7] was “irreversible”.
For `O=C(O)CN1CCCN2CCN(CCCN(CC(=O)O)CC2)CC1` [cb-te2a], the “b) thermodynamic stability: log K[CuL]” value [3] is given as 27.10*, the “a) metallation kinetics: time required for complete (>99%) Cu complexation (in words)” value [5] is given as “too slow” and the “half-life (t1/2), acid-assisted dissociation of copper(II) complex” value (“half-life … of copper(II) complex” for short) ([6]; 5M HCl, 90° C.) is given as 154 h. The “d) kinetic inertness: half-life (t1/2)” value ([6]; HCl, 5M, 90° C.) was 9240 min, the “e) stability upon reduction, Cu(II) -> Cu (I): reduction potential” value [7] was −0.88 V and the “e) stability upon reduction, Cu(II) -> Cu (I): reversibility” value [7] was “quasi-reversible”.
For `O=C(O)CN1CCN2CCN(CC1)CCN(CC(=O)O)CC2` [cb-do2a], the “a) metallation kinetics: time required for complete (>99%) Cu complexation (in words)” value [5] is listed as “too slow”, the “half-life … of copper(II) complex” value ([6]; 5M HCl, 30° C.) is listed as less than 0.033 h and the “d) kinetic inertness: half-life (t1/2)” value ([6]; HCl, 5M, 30° C.) is listed as less than 2 min. The “d) kinetic inertness: half-life (t1/2)” value ([6]; HCl, 5M, 90° C.) was less than 3 min, the “e) stability upon reduction, Cu(II) -> Cu (I): reduction potential” value [7] was −0.72 V and the “e) stability upon reduction, Cu(II) -> Cu (I): reversibility” value [7] was “irreversible”.
For `O=C(O)CN1CCCN(CC(=O)O)CCN(CC(=O)O)CCCN(CC(=O)O)CC1` [teta], the “b) thermodynamic stability: pCu” value [1] is given as 15.19, the “c) inertness vs Zn: pZn” value [2] is given as 10.08 and the “b) thermodynamic stability: log K[CuL]” value [3] is given as 21.60. For the same compound, the “c) inertness vs Zn: log K[ZnL]” value [4] was 15.81**, the “a) metallation kinetics: time required for complete (>99%) Cu complexation (in words)” value [5] was “fast” and the “d) kinetic inertness: half-life (t1/2)” value ([6]; HCl, 5M, 30° C.) was 5040 min. For the same compound, the “d) kinetic inertness: half-life (t1/2)” value ([6]; HCl, 5M, 90° C.) was 4.5 min, the “d) kinetic inertness: half-life (t1/2)” value ([6]; HClO4, 5M, 25° C.) was “about 8 min” and the “e) stability upon reduction, Cu(II) -> Cu (I): reduction potential” value [7] was −0.98 V. For the same compound, the “e) stability upon reduction, Cu(II) -> Cu (I): reversibility” value [7] was “irreversible”.
With `O=C(O)c1cccc(CN2CCCNCCNCCCNCC2)n1` [Hte1pa] the “b) thermodynamic stability: pCu” value [1] was 18.64, the “Calculated pM, Cu^2+” value [1, 9] was 18.64 and the “c) inertness vs Zn: pZn” value [2] was 12.00. The “Calculated pM, Zn^2+” value [2, 9] was 12.00, the “log βi^H, L + 2 H^+ ⇌ H2L” value [8] was 21.66 log units and the “log βi^H, L + 3 H^+ ⇌ H3L” value [8] was 24.37 log units. The “log βi^H, L + 4 H^+ ⇌ H4L” value [8] was 26.07 log units, the “log βi^H, L + H^+ ⇌ HL” value [8] was 11.55 log units and the “log KMLHh, CuL + H^+ ⇌ CuHL” value [3, 10] was 2.17 log units. The “log KMLHh, CuLOH + H^+ ⇌ CuL” value [3, 10] was 11.15 log units, the “log KMLHh, Cu^2+ + L ⇌ CuL” value [3, 10] was 25.5 log units and the “log βMLHh, Cu^2+ + H^+ + L ⇌ CuHL” value [3, 10] was 27.67 log units. For the same compound, the “log βMLHh, Cu^2+ + L ⇌ CuL” value [3, 10] was 25.5 log units, the “log βMLHh, Cu^2+ + L ⇌ CuLOH + H^+” value [3, 10] was 14.35 log units and the “b) thermodynamic stability: log K[CuL]” value [3] was 25.50. The “log KMLHh, ZnL + H^+ ⇌ ZnHL” value [4, 10] was 2.52 log units, the “log KMLHh, ZnLOH + H^+ ⇌ ZnL” value [4, 10] was 11.02 log units and the “log KMLHh, Zn^2+ + L ⇌ ZnL” value [4, 10] was 18.86 log units. The “log βMLHh, Zn^2+ + H^+ + L ⇌ ZnHL” value [4, 10] was 21.38 log units, the “log βMLHh, Zn^2+ + L ⇌ ZnL” value [4, 10] was 18.86 log units and the “log βMLHh, Zn^2+ + L ⇌ ZnLOH + H^+” value [4, 10] was 7.84 log units. The “c) inertness vs Zn: log K[ZnL]” value [4] was 18.86, the “a) metallation kinetics: time required for complete (>99%) Cu complexation” value ([5]; ligand of the prior art) was 3 min and the “half-life … of copper(II) complex” value ([6]; 1M HCl, 25° C.) was 0.533 h. For the same compound, the “half-life … of copper(II) complex” value ([6]; 5M HClO4, 25° C.) was 2.4 h, the “d) kinetic inertness: half-life (t1/2)” value ([6]; HClO4, 5M, 25° C.) was 144 min and the “e) stability upon reduction, Cu(II) -> Cu (I): reduction potential” value [7] was −1.05 V. The “e) stability upon reduction, Cu(II) -> Cu (I): reversibility” value [7] was “quasi-reversible”.
